The target of assay [1] is T1, ISCA2 (Homo sapiens, UniProt Q86U28).
T1 construct: His6 (N); made in house; host or cells: E. coli Rosetta (DE3)
T1 sequence (Q86U28 9-154): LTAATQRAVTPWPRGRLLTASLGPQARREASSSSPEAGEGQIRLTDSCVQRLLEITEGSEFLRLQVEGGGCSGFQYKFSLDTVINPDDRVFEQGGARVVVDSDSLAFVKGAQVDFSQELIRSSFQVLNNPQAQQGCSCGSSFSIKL
The assay can be described thus: Thermal shift assay with recombinant ISCA2 (SYPRO Orange). The format is binding. As for the experimental part: Thermal shift assays were performed by monitoring the change in protein melting temperature (Tm) in the absence or presence of test compounds, using the hydrophobic protein binding dye, SYPRO Orange (S6650, Thermo Fisher Scientific), measured using the LightCycler 480 (Roche Life Sciences, Indianapolis, IN) according to the manufacturer's protocol. Recombinant ISCA2 was produced by expressing amino acid residues 9-154 of ISCA2 (ISCA2 lacking its mitochondrial localization sequence) in the pET28 vector containing an N-terminal His6 tag in Rosetta (DE3) competent cells (Novagen, Millipore Sigma). ISCA2 production was induced by treating ISCA2 transformed log phase cells with 0.25 mM IPTG for 4 hours at 18° C. ISCA2 was purified using Ni^2+ affinity purification according to standard protocols and eluted in 50 mM Tris-C1 pH7.4, 150 mM NaCl, 5 mM DTT. Thermal shift assays were performed in 384-well plates using 1 μl of a 10× concentration of SYPRO Orange, 8 μl of ISCA2 (4 μg protein) and 1 μl of 1-2 mM stock of test compound per well. The LightCycler was used according to the following setup: LightCycler 480 Instrument Temperature Setup: First target of 20° C., with a Hold of 15 seconds; second target of 95° C., with Acquisition Mode of Continuous, and 10 acquisitions per degree c.; and third target of 20° C., with a Hold of 15 seconds. Tms were determined using Roche Protein Melting Analysis Software. Representative data are shown in FIGS. 6 and 7 using compound 1 and 26HCL at 200 and 100 µM final concentration respectively. […] These findings are supported by studies showing that re-expression of VHL (which increases ISCA2) and overexpression of ISCA2 itself, promotes the resistance of cells to the compounds (shown in FIG. 8).

Assay [2] deals with HIF-2α transcriptional activity. Put plainly: Hypoxia-responsive element-driven luciferase (HRE-Luc) screen. The format is cell-based, human. The following applies: 786-0 ccRCC cells stably expressing HRE-Luc, 24 h treatment, range of IC50 values. Here is the method: (§1) Screens for inhibitory activity of compounds described herein were performed using 786-0 ccRCC cells that stably express HRE-Luc: 5 copies of the hypoxia-responsive element (HRE) fused to the pGL3 luciferase reporter (Promega Corp, Madison WI). 786-0 cells are pVHL deficient and thus constitutively express HIF-2α independently of cellular oxygen tension. Since 786-0 cells lack HIF-1α, HRE-driven luciferase activity is primarily HIF-2α driven, and has been previously validated. Cells were maintained at log phase growth in […] (DMEM) with 10% FBS in a humidified incubator at 37° C. with 5% CO2. For screening assays, cells were seeded at a density of 4,000 cells in 50 μl of complete media/well in quadruplicate wells/point in a 96-well plate. After 24 h, 50 μl of a 2× concentration of test compound was added to each well. Compounds were diluted from a 5-10 mM stock in DMSO and final concentrations of DMSO in each well in controls and treated wells were kept constant at ≤0.6% DMSO. After 24 h treatment, luciferase activity was measured using the Steady-Glo Luciferase assay system (Promega Corp) according to the manufacturer's protocol. Cell viability was measured in quadruplicate parallel wells using resazurin as recommended by the manufacturer (R&D systems, Minneapolis, MN). Data for luciferase and resazurin were normalized to DMSO treated controls (defining 100%) and wells containing assay reagent but no cells (defining 0%) and graphed using the log inhibitor versus normalized response option in Graphpad Prism 9.3.1 software. Representative data determined using Steady-Glo luciferase and resazurin are shown in FIGS. 1A and 1B respectively, with error bars showing SD. Filled diamonds, empty squares and empty triangles indicate treatment with 3, 8 and 22 respectively with results for HRE-Luc shown in FIG. 1A.

Assay [3] relates to IRP2 and GPX4. The assay can be described thus: Western blots for cellular iron-sensing machinery (IRP2, GPX4). Type of assay: cell-based, human. Conditions: 786-0 or RCC10 ccRCC cells, 24h, relative to GAPDH. As for the experimental part: (§2) Western blots were performed to determine the effects of the compounds on levels of HIF-2α and other relevant proteins, whereas qPCR was performed to determine the effects of compounds on transcript levels of HIF target genes. 786-0 or RCC10 cells were plated at 1×10E5 cells/well in 2 ml DMEM with 10% FBS/well in 6-well tissue culture plates. Cells were allowed to adhere overnight in a humidified incubator at 37° C. with 5% CO2, after which the appropriate concentrations of compounds in DMSO were added. DMSO concentrations were kept constant in all wells. After 24 h exposure to the compounds, cells were lysed and subjected to western blotting according to standard protocols. Antibodies for HIF-1α and HIF-2α and GAPDH were purchased from Cell Signaling Technology (Danvers, MA), whereas antibodies to IRP2 and pVHL were from Santa Cruz Biotechnology (Dallas, TX), and GPX4 antibody was from R&D Systems, Inc (Minneapolis, MN). Representative data in FIG. 2 show a dose-dependent effect of compounds in decreasing HIF-1/2α. Compounds also impact cellular iron sensing given by increased IRP2, which taken together indicate that cells sense decreased amounts of available iron, which triggers the iron starvation response initiated by IRP2 stabilization. Representative data shown in FIG. 3D show a dose dependent effect of the compounds on GPX4, which may indicate decreased resistance to ferroptosis. […] The data also show increased expression of ISCA2 with pVHL re-expression.

The test system of assay [4] is HIF-1α and HIF-2α. Put plainly: Western blots for HIF-1α and HIF-2α in ccRCC cells. The format is cell-based, human. Conditions: 786-0 or RCC10 ccRCC cells, 24h, relative to GAPDH. As for the experimental part: as §2
(In general: A western blot detects proteins with antibodies after separation by electrophoresis.)

The test system of assay [5] is 786-0 cells. The assay can be described thus: Resazurin cell viability assay, with or without DFO and other inhibitors. Type of assay: cell-based, human. Conditions: for IC50: Homo sapiens, 24 h, resazurin. As for the experimental part:
as §1
In view of the increased cellular iron concentrations induced by the compounds described herein, the involvement of iron in mediating cell death was determined. Cell viability assays were performed as described in Example 2 using resazurin as a cell viability readout and performed in the absence or presence of 100 μM of the iron chelator, DFO (D9533, MilliporeSigma, St Louis, MO). […] Viability IC50 values are shown in brackets.
In general terms: The colour change of resazurin is a common sign of viable cells or microbes.

The subject of assay [6] is 786-0 ccRCC cells. The assay can be described thus: ICP-MS of cellular iron, zinc and copper. Type of assay: cell-based, human. Conditions: 786-0 cells, 24h. As for the experimental part:
These studies were performed to determine the content of iron and other transition metals in cells after exposure the compounds described herein. 786-0 cells were seeded at 1.5 million cells/flask in T75 cm^2 flasks in DMEM+10% FBS, and allowed to adhere overnight. Cells were then treated with indicated concentrations of compounds in DMSO or DMSO alone (vehicle) for a further 24 h, after which cells were detached by trypsinization, counted, washed twice in phosphate-buffered saline (PBS) and pelleted. Experiments were performed using three replicate T75 cm^2 flasks per condition. A 5:1 mixture of nitric acid (OPTIMA Grade, 70%, Fisher Scientific) and ultrapure hydrogen peroxide (ULTREX II, 30%, Fisher Scientific) was added to cell pellets. This mixture was allowed to digest overnight, heated until dry, and resuspended in 2% nitric acid for analysis using an Agilent 7900 ICP-MS (Agilent Technologies, Santa Clara, CA). Calibration standard solutions for determination of Fe were prepared from Agilent multi-element calibration standard-2A. An Agilent Environmental Calibration Standard was used as an independent control. PBS-only control digestions were used to measure background. Metal readings were normalized to cell number. Data obtained from these studies for three replicate readings (with SEM) are shown in FIG. 3, which show an increase in cellular iron (Fe) content after treatment with indicated compounds.

From patent US20250346588A1, “IMIDAZOPYRIDINE AND OXAZOLOPYRIDINE DERIVATIVES AND ANALOGS THEREOF, METHODS OF PREPARATION THEREOF, METHODS OF HIF-1/2A PATHWAY INHIBITION, AND INDUCTION OF FERROPTOSIS” (KUDA THERAPEUTICS, INC., priority 2022, published 2025) come the findings set out here.

Read-outs that look alike come from different tables or passages of the source. Some results are limits rather than exact numbers.

As to `COc1cccc2sc(Nc3nnc(-c4ccc(F)cc4)o3)nc12` [Compound 1, 5-(4-fluorophenyl)-N-(4-methoxybenzo[d]thiazol-2-yl)-1,3,4-oxadiazol-2-amine], the “Tm of ISCA2 in compound-treated wells” value in assay [1] (200 μM compound, control wells 53.21±0.36) was determined as 55.63±0.26 °C. For the same compound, in assay [1] (compound 1 and 26HCL at 200 and 100 μM final concentration respectively), the “change in melting temperature of ISCA2 (in words)” value is “significant change in melting temperature of ISCA2”. This compound yielded an IC50 in assay [2] (Homo sapiens, 786-0, 24 h) of under 10 µM. Further, the “effect on IRP2 protein (Western blot)” value in assay [3] is reported as “increases IRP2”. In addition, in assay [4], the “effect on HIF-1α and HIF-2α protein (Western blot)” value was “decreases HIF-1α and HIF-2α”.
`COc1nccc2[nH]c(Nc3nnc(-c4ccc(F)cc4)o3)nc12` [Compound 3, 5-(4-Fluorophenyl)-N-(4-methoxy-1H-imidazo[4,5-c]pyridin-2-yl)-1,3,4-oxadiazol-2-amine]: the IC50 in assay [2] (Homo sapiens, 786-0, 24 h) was under 10 µM. Further, the “effect of DFO co-treatment on compound-mediated loss of cell viability” value in assay [5] (DFO 100 μM, FIG. 4B) was “protective effects of DFO”. Besides, in assay [6], the “cellular iron (Fe), zinc (Zn) and copper (Cu) content” value was “increases the content of iron, zinc and copper in cells”. Moreover, the “effect on IRP2 protein (Western blot)” value in assay [3] was “increases IRP2”. The “effect on HIF-1α and HIF-2α protein (Western blot)” value in assay [4] was “decreases HIF-1α and HIF-2α”.
Take `COc1ccc(-c2nnc(Nc3nc4c(OC)nccc4[nH]3)o2)cc1` [Compound 22, N-(4-methoxy-1H-imidazo[4,5-c]73yridine-2-yl)-5-(4-methoxyphenyl)-1,3,4-oxadiazol-2-amine]: the IC50 is under 10 µM in assay [2] (Homo sapiens, 786-0, 24 h); 11.4 µM in assay [5] (compound alone, read-out: cell viability IC50); 83.6 µM in assay [5] (with DFO 100 μM, read-out: cell viability IC50 in the presence of DFO). Besides, in assay [6], the “cellular iron (Fe), zinc (Zn) and copper (Cu) content” value is “increases the content of iron, zinc and copper in cells”.
Regarding `COc1cccc2[nH]c(Nc3nnc(-c4ccc5c(c4)OCCO5)o3)nc12` [Compound 86, 5-(2,3-dihydrobenzo[b][1,4]dioxin-6-yl)-N-(4-methoxy-1H-benzo[d]imidazol-2-yl)-1,3,4-oxadiazol-2-amine], the IC50 in assay [2] (Homo sapiens, 786-0, 24 h) lay in the range of 50 to 100 µM.
`COc1cccc2[nH]c(Nc3nnc(-c4ccc5c(c4)CCO5)o3)nc12` [Compound 87, 5-(2,3-dihydrobenzofuran-5-yl)-N-(4-methoxy-1H-benzol[d]imidazol-2-yl)-1,3,4-oxadiazol-2-amine] returned an IC50 in assay [2] (Homo sapiens, 786-0, 24 h) of 10 to 50 µM.
On to `CCOc1ccc(-c2nnc(Nc3nc4c(OC)cccc4[nH]3)o2)cc1OCC` [Compound 88, 5-(3,4-diethoxyphenyl)-N-(4-methoxy-1H-benzo[d]imidazol-2-yl)-1,3,4-oxadiazol-2-amine], for which the IC50 in assay [2] (Homo sapiens, 786-0, 24 h) is over 100 µM.
In assay [2] (Homo sapiens, 786-0, 24 h), `COc1cccc2[nH]c(Nc3nnc(-c4ccc5occc5c4)o3)nc12` [Compound 89, 5-(benzofuran-5-yl)-N-(4-methoxy-1H-benzo[d]imidazol-2-yl)-1,3,4-oxadiazol-2-amine] registered an IC50 of over 100 µM.
Regarding `COc1cccc2[nH]c(Nc3nnc(N4C[C@H](C)C[C@H](C)C4)o3)nc12` [Compound 92, 5-((3R,5S)-3,5-dimethylpiperidin-1-yl)-N-(4-methoxy-1H-benzo[d]imidazol-2-yl)-1,3,4-oxadiazol-2-amine], the IC50 in assay [2] (Homo sapiens, 786-0, 24 h) was over 100 µM.
`COc1cccc2nc(Nc3nnc(C4CCC(C(C)(C)C)CC4)o3)[nH]c12` (stereo not drawn) [Compound 94, 5-(4-(tert-butyl)cyclohexyl)-N-(7-methoxy-1H-benzo[d]imidazol-2-yl)-1,3,4-oxadiazol-2-amine]: in assay [2] (Homo sapiens, 786-0, 24 h), the IC50 was under 10 µM.
On to `COc1cccc2nc(Nc3nnc(C4C[C@H]5CC[C@@H]4C5)o3)[nH]c12` (stereo partly drawn) [Compound 96, 5-((1R,4S)-bicyclo[2.2.1]heptan-2-yl)-N-(7-methoxy-1H-benzo[d]imidazol-2-yl)-1,3,4-oxadiazol-2-amine], for which, in assay [2] (Homo sapiens, 786-0, 24 h), the IC50 lay in the range of 10 to 50 µM.
In assay [2] (Homo sapiens, 786-0, 24 h), `[2H]C([2H])([2H])Oc1ccc(-c2nnc(Nc3nc4c(OC)nccc4[nH]3)o2)cc1OC([2H])([2H])[2H]` [Compound 97, 5-(3,4-Dimethoxy-d3-phenyl)-N-(4-methoxy-1H-imidazo[4,5-c]pyridin-2-yl)-1,3,4-oxadiazol-2-amine] came in with an IC50 of under 10 µM.
Regarding `COc1nc(C)cc2[nH]c(Nc3nnc([C@H]4CC[C@H](OC)CC4)o3)nc12` [Compound 99, N-(4-methoxy-6-methyl-1H-imidazo[4,5-c]pyridin-2-yl)-5-((1r,4r)-4-methoxycyclohexyl)-1,3,4-oxadiazol-2-amine], the IC50 in assay [2] is under 10 µM.
The compound `COc1nc(C)cc2[nH]c(Nc3nnc([C@H]4CC[C@@H](OC)CC4)o3)nc12` [Compound 100, N-(4-methoxy-6-methyl-1H-imidazo[4,5-c]pyridin-2-yl)-5-((1s,4s)-4-methoxycyclohexyl)-1,3,4-oxadiazol-2-amine] showed an IC50 in assay [2] (Homo sapiens, 786-0, 24 h) of under 10 µM.

The IC50 is the point on the concentration scale where inhibition reaches its midpoint.
